According to PubChem BioAssay (NCI):
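Grown in 96-well plates, cells were treated for 48 hours with each compound at five concentrations. Insufficient inhibition: endpoint recorded as highest concentration tested. At the GI50, growth is halved. TGI denotes the concentration required for complete inhibition of growth.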

Experiments:
Assay in all cases: NCI-60 cell line screen, 48 h
SF-268 CNS = tested on: SF-268 CNS
A549 NSCLC = tested on: A549 NSCLC
SNB-19 CNS = tested on: SNB-19 CNS
HL-60(TB) leukemia = tested on: HL-60(TB) leukemia
NCI-H522 lung = tested on: NCI-H522 lung
HOP-62 NSCLC = tested on: HOP-62 NSCLC
786-0 renal = tested on: 786-0 renal
OVCAR-4 ovarian = tested on: OVCAR-4 ovarian
SNB-75 CNS = tested on: SNB-75 CNS
OVCAR-3 ovarian = tested on: OVCAR-3 ovarian

Compound	TGI (SF-268 CNS) [µM]	TGI (A549 NSCLC) [µM]	TGI (SNB-19 CNS) [µM]	TGI (HL-60(TB) leukemia) [µM]	TGI (NCI-H522 lung) [µM]	TGI (HOP-62 NSCLC) [µM]	TGI (786-0 renal) [µM]	TGI (OVCAR-4 ovarian) [µM]	TGI (SNB-75 CNS) [µM]	TGI (OVCAR-3 ovarian) [µM]	GI50 (SF-268 CNS) [µM]	GI50 (A549 NSCLC) [µM]	GI50 (SNB-19 CNS) [µM]	GI50 (HL-60(TB) leukemia) [µM]	GI50 (NCI-H522 lung) [µM]	GI50 (HOP-62 NSCLC) [µM]	GI50 (786-0 renal) [µM]	GI50 (OVCAR-4 ovarian) [µM]	GI50 (SNB-75 CNS) [µM]	GI50 (OVCAR-3 ovarian) [µM]
O=C(CC(O)(C(F)(F)F)C(F)(F)F)c1cc(CC(=O)C(O)(C(F)(F)F)C(F)(F)F)cc(CC(=O)C(O)(C(F)(F)F)C(F)(F)F)c1	> 10	5.62	> 10	> 10	4.59	3.29	4.53	> 10	6.73	3.52	–	–	–	–	–	–	–	–	–	–
Cn1cnc([N+](=O)[O-])c1S(=O)(=O)Oc1ccccc1	48.2	> 100	> 100	34.4	2.3	39	55.6	15.1	34.9	4.3	16.5	38.1	> 100	12.1	0.759	19.3	25.1	3.22	14.9	2.14
Nc1nccc2c1ccn2-c1ccc(NC(=O)c2ccc(N3CCOCC3)c(C(F)(F)F)c2)cc1	15.1	15.3	8.13	–	6.71	1.73	0.529	24.6	1.38	15.7	0.879	1.39	0.61	0.479	1.12	0.342	0.207	1.96	0.246	1.38
Nc1c(C(=O)Nc2cccc(Br)c2)sc2nc3c(cc12)C(=O)CCC3	> 100	> 100	> 100	> 100	–	> 100	> 100	> 100	> 52.2	> 46.5	19.5	0.5	7.34	0.408	0.248	1.41	0.86	28.5	0.486	0.359
C[C@H]1NC(=O)C2CCCCN2C(=O)CN(C)C(=O)CNC(=O)C2CCCCN2C(=O)[C@@H](NC(=O)c2nc3ccccc3cc2O)[C@@H](C)NC(=O)C2CCCCN2C(=O)CN(C)C(=O)CNC(=O)[C@@H]2CCCCN2C(=O)C1NC(=O)c1nc2ccccc2cc1O (stereo partly drawn)	0.934	> 100	2.11	4.72	0.494	0.66	31.8	5.48	0.39	0.773	–	–	–	–	–	–	–	–	–	–
